Test [1] concerns the target PDE 7 (phosphodiesterase VII) (Homo sapiens (Human), UniProt Q13946). Briefly: PDE 7 inhibiting effect (3H-cAMP hydrolysis, PDE 7 active fraction from MOLT-4 cells). Conditions: PDE 7 fraction from MOLT-4 cells, 0.064 μM cAMP, 10 μM rolipram, 2 hours at 25° C.; read-out: PDE7 IC50. Format: biochemical. A digest of the protocol:
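PDE7 taken from the soluble fraction of human MOLT-4 T cells (homogenised in pH 7.5 Tris buffer, 100,000×G spin), partially purified on HiTrap Q with a 0–0.8 M NaCl gradient. Inhibition measured as ³H-cAMP hydrolysis, with product separated using Sephadex-QAE in 10 mM HEPES-Na pH 7.0.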

In test [2] the target is PDE 4 (phosphodiesterase IV). Briefly: PDE 4 inhibiting effect (3H-cAMP hydrolysis, PDE 4 active fraction from Balb/c mouse liver). It counts as biochemical. Conditions: PDE 4 fraction from Balb/c mice liver, 0.064 μM cAMP, 2 hours at 25° C.; read-out: PDE4 IC50. The procedure, abridged: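 PDE4 was taken from the soluble liver fraction of male Balb/c mice (12 weeks), purified on DEAE sepharose with a sodium acetate gradient. Inhibition was measured as hydrolysis of 3H-cAMP. The reaction was followed by Sephadex-QAE treatment in HEPES-Na pH 7.0.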

The structures appear in SMILES notation. Where a name gives a salt, the structure may show the parent alone.

Chain of PDE 7 (phosphodiesterase VII) (Q13946 whole entry): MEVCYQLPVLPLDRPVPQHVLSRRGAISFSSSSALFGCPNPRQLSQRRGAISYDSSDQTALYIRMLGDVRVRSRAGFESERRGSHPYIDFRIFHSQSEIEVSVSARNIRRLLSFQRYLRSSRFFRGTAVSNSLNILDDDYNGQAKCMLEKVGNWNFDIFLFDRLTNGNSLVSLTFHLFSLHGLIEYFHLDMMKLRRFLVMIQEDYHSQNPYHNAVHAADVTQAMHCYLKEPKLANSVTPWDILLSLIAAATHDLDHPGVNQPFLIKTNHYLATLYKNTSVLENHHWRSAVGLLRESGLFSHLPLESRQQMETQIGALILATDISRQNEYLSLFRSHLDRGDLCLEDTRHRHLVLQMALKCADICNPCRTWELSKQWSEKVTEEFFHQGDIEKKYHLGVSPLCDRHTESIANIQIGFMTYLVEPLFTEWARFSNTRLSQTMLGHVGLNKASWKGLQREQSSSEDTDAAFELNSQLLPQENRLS

For `CNC1CCN(c2ccc(NC(=O)c3cc4c(C)nn(C5CCCCC5)c4s3)cc2F)CC1` [Example 163, 1-Cyclohexyl-N-{3-fluoro-4-[4-(methylamino)-1-piperidinyl]phenyl}-3-methyl-1H-thieno[2,3-c]pyrazole-5-carboxamide], the figures for the IC50 in test [1] and in test [2] were 14 nM and 900 nM, respectively.

For `CC(=O)c1ccc(NC(=O)c2cc3c(C)nn(C4CCCCC4)c3s2)cc1` [Example 38, N-(4-Acetylphenyl)-1-cyclohexyl-3-methyl-1H-thieno[2,3-c]pyrazole-5-carboxamide], the IC50 is 33 nM in test [1] and 5000 nM in test [2].

Consider `Cc1nn(C2CCOCC2)c2sc(C(=O)Nc3ccc(N4CCNC(=O)C4)cc3)cc12` [Example 342, 3-Methyl-N-[4(3-oxo-1-piperazinyl)phenyl]-1-tetrahydro-2H-pyran-4-yl-1H-thieno[2,3-c]pyrazole-5-carboxamide], for which the IC50 in test [1] is 28 nM; in test [2], 4600 nM.

With `CC(=O)N1CCCN([C@H]2CC[C@H](NC(=O)c3cc4c(C)nn(C5CCCCC5)c4s3)CC2)CC1` [Example 171, N-[trans-4-(4-Acetyl-1,4-diazepam-1-yl)cyclohexyl]-1-cyclohexyl-3-methyl-1H-thieno[2,3-c]pyrazole-5-carboxamide], the IC50 in test [1] was 37 nM; in test [2], 1700 nM.

Turning to `COc1cc(NC(=O)c2cc3c(C)nn(C4CCCCC4)c3s2)ccc1NC(C)=O` [Example 10, N-[4-(Acetylamino)-3-methoxyphenyl]-1-cyclohexyl-3-methyl-1H-thieno[2,3-c]pyrazole-5-carboxamide], the values for the IC50 in test [1] and in test [2] were 27 nM and 1800 nM, respectively.

`Cc1nn(C2CCCCC2)c2sc(C(=O)Nc3ccc(N4CCN(C)CC4)cc3)cc12` [Example 106, 1-Cyclohexyl-3-methyl-N-[4-(4-methyl-1-piperazinyl)phenyl]-1H-thieno[2,3-c]pyrazole-5-carboxamide]: the IC50 in test [1] came to 9 nM; in test [2], 1200 nM.

As for `Cc1nn(C2CCCCC2)c2sc(C(=O)Nc3ccc(N4CCC(O)CC4)c(Cl)c3)cc12` [Example 162, N-[3-Chloro-4-(4-hydroxy-piperidinyl)phenyl]-1-cyclohexyl-3-methyl-1H-thieno[2,3-c]pyrazole-5-carboxamide], the half-maximal inhibitory concentration (IC50) is 70 nM in test [1] and 2000 nM in test [2].

As to `Cc1nn(C2CCCCC2)c2sc(C(=O)Nc3ccc(OCC(=O)N4CCN(C)CC4)cc3)cc12` [Example 76, 1-Cyclohexyl-3-methyl-N-{4-[2-(4-methyl-1-piperazinyl)-2-oxoethexy]-phenyl}-1H-thieno[2,3-c]pyrazole-5-carboxamide], the IC50 worked out at 20 nM in test [1] and 2000 nM in test [2].

`CCN1C(=O)CN(CCNC(=O)c2cc3c(C)nn(C4CCCCC4)c3s2)C1=O` [Example 316, 1-Cyclohexyl-N-[2-(3-ethyl-2,4-dioxo-1-imidazolidinyl)ethyl]-3-methyl-1H-thieno[2,3-c]pyrazole-5-carboxamide]: the IC50 stood at 97 nM in test [1] and 15000 nM in test [2].

In the case of `Cc1nn(C2CCCCC2)c2sc(C(=O)Nc3ccc(C(=O)N4CCN(C)CC4)cc3)cc12` [Example 32, 1-Cyclohexyl-3-methyl-N-{4-[(4-methyl-1-piperazinyl)carbonyl]-phenyl}-1H-thieno[2,3-c]pyrazole-5-carboxamide], the IC50 was found to be 95 nM in test [1] and 2500 nM in test [2].

In the case of `Cc1nn(C2CCCCC2)c2sc(C(=O)NC3CCN(C(=O)N(C)C)CC3)cc12` [Example 235, 1-Cyclohexyl-N-{1-[(dimethylamino)carbonyl]-4-piperidinyl}-3-methyl-1H-thieno[2,3-c]pyrazole-5-carboxamide], the IC50 in test [1] amounted to 17 nM; in test [2] it was 2800 nM.

As for `Cc1nn(C2CCOCC2)c2sc(C(=O)Nc3ccc(N4CCN(C)CC4)cc3)cc12` [Example 196, 3-Methyl-N-[4-(4-methyl-1-piperazinyl)phenyl]-1-tetrahydro-2H-pyran-4-yl-1H-thieno[2,3-c]pyrazole-5-carboxamide], the IC50 in test [1] was found to be 90 nM; in test [2] it was 7500 nM.

For `Cc1nn(C2CCCCC2)c2sc(C(=O)N[C@H]3CC[C@H](N4CCNCC4)CC3)cc12` [Example 188, 1-Cyclohexyl-3-methyl-N-[trans-4-(1-piperazinyl)cyclohexyl]-1H-thieno[2,3-c]pyrazole-5-carboxamide], the results for the IC50 in test [1] and in test [2] were 6.5 nM and 700 nM, respectively.

As for `Cc1nn(C2CCCCC2)c2sc(C(=O)Nc3ccc4c(c3)CCN4)cc12` [Example 14, 1-Cyclohexyl-N-(2,3-dihydro-1H-indol-5-yl)-3-methyl-1H-thieno[2,3-c]pyrazole-5-carboxamide HCl salt], the IC50 in test [1] came out at 88 nM; in test [2], 3700 nM.

Regarding `Cc1nn(C2CCCCC2)c2sc(C(=O)Nc3ccc(OCC(=O)N(C)C)cc3)cc12` [Example 77, 1-Cyclohexyl-N-{4-[2-(dimethylamino)-2-oxoethoxy]phenyl}-3-methyl-1H-thieno[2,3-c]pyrazole-5-carboxamide], the figures for the IC50 in test [1] and in test [2] were 20 nM and 2000 nM, respectively.

For `Cc1nn(C2CCOCC2)c2sc(C(=O)N[C@H]3CC[C@H](N4CCC(O)CC4)CC3)cc12` [Example 425, N-[trans-4-(4-Hydroxy-1-piperidinyl)cyclohexyl]-3-methyl-1-tetrahydro-2H-pyran-4-yl-1H-thieno[2,3-c]pyrazole-5-carboxamide], the IC50 was 90 nM in test [1] and 13000 nM in test [2].

With `Cc1nn(C2CCOCC2)c2sc(C(=O)Nc3ccc(N4CCNC4=O)nc3)cc12` [Example 261], the IC50 in test [1] was 28 nM; in test [2] it was 1900 nM.

As to `Cc1nn(C2CCCCC2)c2sc(C(=O)N[C@H]3CC[C@H](N4CCOC4=O)CC3)cc12` [Example 270, 1-Cyclohexyl-3-methyl-N-[trans-4-(2-oxo-1,3-oxazolidin-3-yl)-cyclohexyl]-1H-thieno[2,3-c]pyrazole-5-carboxamide], the IC50 in test [1] was 15 nM; in test [2], 1800 nM.

With `Cc1nn(C2CCCCC2)c2sc(C(=O)Nc3cccc(S(=O)(=O)N4CCC(O)CC4)c3)cc12` [Example 264, 1-Cyclohexyl-N-{3-[(4-hydroxy-1-piperidinyl)sulfonyl]phenyl}-3-methyl-1H-thieno[2,3-c]pyrazole-5-carboxamide], the values for the IC50 in test [1] and in test [2] were 81 nM and 6300 nM, respectively.

For `COc1cc(NC(=O)c2cc3c(C)nn(C4CCCCC4)c3s2)ccc1C(=O)NCCO` [Example 150, 1-Cyclohexyl-N-(4-{[(2-hydroxyethyl)amino]carbonyl}-3-methoxyphenyl)-3-methyl-1H-thieno[2,3-c]pyrazole-5-carboxamide], the IC50 is 45 nM in test [1] and 700 nM in test [2].

On to `Cc1nn(C2CCOCC2)c2sc(C(=O)N[C@H]3CC[C@H](N4CCN(C)CC4=O)CC3)cc12` [Example 415, 3-Methyl-N-[trans-4-(4-methyl-2-oxo-piperazinyl)cyclohexyl]-1-tetrahydro-2H-pyran-4-yl-1H-thieno[2,3-c]pyrazole-5-carboxamide], for which the 50% inhibitory concentration (IC50) in test [1] is 93 nM; in test [2], 5100 nM.

In the case of `Cc1nn(C2CCOCC2)c2sc(C(=O)Nc3ccc(N4CCC(O)CC4)c(F)c3)cc12` [Example 268, N-[3-Fluoro-4-(4-hydroxy-piperidinyl)phenyl]-3-methyl-1-tetrahydro-2H-pyran-4-yl-1H-thieno[2,3-c]pyrazole-5-carboxamide], the IC50 was 88 nM in test [1] and 4800 nM in test [2].

`Cc1nn(C2CCCCC2)c2sc(C(=O)Nc3ccc4c(c3)CC(=O)N4)cc12` [Example 26, 1-Cyclohexyl-3-methyl-N-(2-oxo-2,3-dihydro-1H-indol-5-yl)-1H-thieno[2,3-c]pyrazole-5-carboxamide]: the IC50 came to 44 nM in test [1] and 3000 nM in test [2].

Regarding `Cc1nn(C2CCCCC2)c2sc(C(=O)Nc3ccc(CCN4CCOCC4)cc3)cc12` [Example 201, 1-Cyclohexyl-3-methyl-N-{4-[2-(4-morpholinyl)ethyl]phenyl}-1H-thieno[2,3-c]pyrazole-5-carboxamide], the IC50 in test [1] stood at 18 nM; in test [2] it was 2200 nM.

`Cc1nn(C2CCCCC2)c2sc(C(=O)N[C@H]3CC[C@H](N4CCN(C)CC4=O)CC3)cc12` [Example 416, 1-Cyclohexyl-3-methyl-N-[trans-4-(4-methyl-2-oxo-1-piperazinyl)-cyclohexyl]-1H-thieno[2,3-c]pyrazole-5-carboxamide]: the values for the IC50 in test [1] and in test [2] were 17 nM and 1300 nM, respectively.

On to `Cc1nn(C2CCCCC2)c2sc(C(=O)N[C@H]3CC[C@H](N4CCCN(C)CC4)CC3)cc12` [Example 167, 1-Cyclohexyl-3-methyl-N-[trans-4-(4-methyl-1,4-diazepam-1-yl)-cyclohexyl]-1H-thieno[2,3-c]pyrazole-5-carboxamide], for which the IC50 came to 15 nM in test [1] and 1000 nM in test [2].

On to `Cc1nn(C2CCCCC2)c2sc(C(=O)N[C@H]3CC[C@H](CO)C3)cc12` [Example 257, 1-Cyclohexyl-N-[(1S,3S)-3-(hydroxymethyl)cyclopentyl]-3-methyl-1H-thieno[2,3-c]pyrazole-5-carboxamide], for which the IC50 in test [1] came out at 68 nM; in test [2], 8300 nM.

`Cc1nn(C2CCCCC2)c2sc(C(=O)Nc3ccc(N4CCNCC4)cc3)cc12` [Example 72, 1-Cyclohexyl-3-methyl-N-[4-(1-piperazinyl)phenyl]-1H-thieno[2,3-c]pyrazole-5-carboxamide HCl salt]: the IC50 in test [1] amounted to 10 nM; in test [2], 1200 nM.

A word on the IC50: it is the concentration that gives 50% inhibition.

(Values after patent US8901315B2, “Thienopyrazole derivative having PDE7 inhibitory activity” (Daiichi Sankyo Company, Limited, priority 2004, dated 2014).)
